Key:
in vivo [1] = settings: rat, iv
in vivo [2] = settings: dog, iv
in vivo [3] = settings: dog, po
in vivo [4] = settings: rat, po
in vivo [5] = settings: rat, iv; remark: listed apart in the source
in vivo [6] = settings: dog, iv; remark: listed apart in the source

With CN1Cc2cc(C(=O)NCc3cccc(N)n3)ccc2N[C@@H](CC(=O)O)C1=O the clearance (in vivo [1]) was 63 mL/min/kg, the clearance (in vivo [2]) was 7.8 mL/min/kg and the bioavailability (in vivo [3]) was 10%. It also gave a bioavailability (in vivo [4]) of 13%, a half-life (in vivo [5]) of 45 min and a half-life (in vivo [6]) of 47 min.
